ChEMBL document CHEMBL4680331, “Ancistrobrevidines A-C and related naphthylisoquinoline alkaloids with cytotoxic activities against HeLa and pancreatic cancer cells, from the liana Ancistrocladus abbreviatus” (Bioorg Med Chem, 2021)

Experiments:
[1] = test system: HeLa; test: Cytotoxicity against human HeLa cells assessed as decrease in cell viability measured after 72 hrs by WST-8 assay; type: functional, cell-based
[2] = test system: PANC-1; test: Anti-austerity activity against nutrient-deprived human PANC-1 cells assessed as cell death incubated for 24 hrs by WST-8 assay; type: functional
[3] = test system: PANC-1; test: Cytotoxicity against nutrient-rich DMEM cultured human PANC-1 cells incubated for 24 hrs by WST-8 assay; type: cell-based; settings: panc-1, 24 h
[4] = test system: PANC-1; test: Induction of morphological changes in human PANC-1 cells cultured in nutrient-deprived medium assessed as cell death at 20 uM measured after 24 hrs by ethidium bromide/acridine orange staining based phase contrast microscopy relative to control; type: functional
[5] = test system: PANC-1; test: Inhibition of cell migration in human PANC1 cells assessed as open wound area at 20 uM cultured in nutrient rich DMEM medium measured after 24 hrs by quantitative real-time imaging based wound healing assay (reference value: 50%); type: functional; parameters: scale not given: the % may be the effect or the level left
[6] = test system: PANC-1; test: Inhibition of cell migration in human PANC1 cells assessed as open wound area at 40 uM cultured in nutrient rich DMEM medium measured after 24 hrs by quantitative real-time imaging based wound healing assay (reference value: 50%); type: functional; parameters: scale not given: the % may be the effect or the level left
[7] = test system: PANC-1; test: Inhibition of cell migration in human PANC1 cells assessed as open wound area at 20 uM cultured in nutrient rich DMEM medium measured after 48 hrs by quantitative real-time imaging based wound healing assay relative to control; type: functional; parameters: scale not given: the % may be the effect or the level left
[8] = test system: PANC-1; test: Inhibition of cell migration in human PANC1 cells assessed as open wound area at 40 uM cultured in nutrient rich DMEM medium measured after 48 hrs by quantitative real-time imaging based wound healing assay relative to control; type: functional; parameters: scale not given: the % may be the effect or the level left
[9] = test system: PANC-1; test: Inhibition of colony formation in human PANC-1 cells at 10 uM cultured in nutrient rich DMEM medium measured after 24 hrs by crystal violet staining based assay relative to control; type: functional
[10] = test system: PANC-1; test: Inhibition of colony formation in human PANC-1 cells at 20 uM cultured in nutrient rich DMEM medium measured after 24 hrs by crystal violet staining based assay relative to control; type: functional
[11] = test system: PANC-1; test: Inhibition of colony formation in human PANC-1 cells at 40 uM cultured in nutrient rich DMEM medium measured after 24 hrs by crystal violet staining based assay relative to control; type: functional

| Structure (SMILES) | IC50 [1] [µM] | PC50 [2] [µM] | other results |
| --- | --- | --- | --- |
| COc1cc(O)c(-c2c(C)cc(OC)c3c(OC)cccc23)c2c1C(C)=N[C@H](C)C2 | > 100 | 46.8 |  |
| COc1cccc2c1C(=O)C(=O)C(C)=C2c1c(OC)cc(O)c2c1C[C@H](C)N[C@H]2C | 84.3 | 28.5 |  |
| COc1cc(C[C@H]2C(=O)OC[C@@H]2Cc2ccc(OC)c(OC)c2)ccc1O [ARCTIGENIN] |  | 0.83 |  |
| COc1cc(OC)c(-c2ccc(O)c3c(OC)cc(C)cc23)c2c1C(C)=N[C@@H](C)C2 | 7.2 | 13.3 | Activity [1]: Dose-dependent effect; Activity [3]: Non-Toxic; Activity [4]: 100%; Activity [5]: 62%; Activity [6]: 77%; Activity [7]: 25%; Activity [8]: 70%; inhibition at 10 µM [9]: 63%; inhibition at 20 µM [10]: 95%; inhibition at 40 µM [11]: 100% |
| COc1cc(OC)c(-c2c(C)cc(OC)c3c(OC)cccc23)c2c1C(C)=N[C@H](C)C2 | 46.9 | 64.5 |  |
| COc1cc(OC)c(-c2ccc(OC)c3c(OC)cc(C)cc23)c2c1C(C)=N[C@@H](C)C2 [ANCISTROEALAINE A] |  | 18.8 |  |
